We go through 34 molecules from patent publication US7674787B2, “Conformationally constrained Smac mimetics and the uses thereof” (The Regents of the University of Michigan, priority 2004, dated 2010).

Read-outs that look alike come from different tables or passages of the source. Where a SMILES comes first, the peptide text is derived from it. [ ]: non-standard residue; d: D form. The star is where a group is joined. 6FAM = O=C1OC2(c3ccc(O)cc3Oc3cc(O)ccc32)c2cc(C(=O)*)ccc21; Abu = CC[C@H](N)C(=O)O Bounds are passed on as bounds.

The target of one assay is XIAP BIR3 (Homo sapiens, UniProt P98170). As to the kind of experiment: biochemical.
For another assay, the system named is PC-3 cells. As to the kind of experiment: Apoptosis by Annexin V-FITC staining in PC-3 cells. In kind it is cell-based, human. The following applies: for cells undergoing apoptosis as compared to control cells: 42 hours; for potentiation of CDDP activity in inducing apoptosis: PC-3 cells or MDA-231 cells. The text has this: SH-97, a peptido-mimetic in which the side chain of alanine has been replaced with an ethyl group and the isoleucine has been replaced with a diphenylmethyl group, was used to test the basic premise. Of note, SH-97 still has two natural amino acids (valine and proline) and one natural peptide bond. […] The experiment used PC-3 cells which express high levels of XIAP and cIAP-1/2 proteins and cisplatin (CDDP) as the chemotherapeutic drug. CDDP is a DNA damaging agent and can effectively induce apoptosis in PC-3 cells and is also a clinically used chemotherapeutic drug for prostate cancer.
PC-3 cells were treated with CDDP, Smac peptides and mimetics alone or in combination for 42 hours and apoptosis was analyzed by Annexin V-FITC staining. […] Combination of 25 μM CDDP and 10 μM or 25 μM SH-97 induced 29.3%±1.9% and 35.8%±0.4% apoptosis over control cells, respectively (FIG. 18A).
Similar experiments were performed with SH-102 (Table 5). PC-3 cells in 6-well plates were treated with SH-102 and CDDP, alone or in combination, for 42 hours. Cells were collected and stained with Annexin V-FITC and propidium iodide. The fluorescence of Annexin V-FITC and propidium iodide of individual cells was analyzed by flow cytometry. […] Combination of 25 μM CDDP and 10 μM SH-102 induced 32% apoptosis over control cells (FIG. 19).
The same experiment was performed using TAXOTERE (docetaxel), another cancer chemotherapeutic drug. PC-3 cells in 6-well plates were treated with SH-102 and TAXOTERE, alone or in combination, for 42 hours. Cells were collected and stained with Annexin V-FITC and propidium iodide. The fluorescence of Annexin V-FITC and propidium iodide of individual cells was analyzed by flow cytometry. […] Combination of 10 μM TAXOTERE and 10 μM SH-102 induced about 18% apoptosis over control cells (FIG. 21).

The test system of a further assay is MDA-231 cells. As to the kind of experiment: Apoptosis by Annexin V-FITC/propidium iodide in MDA-231 cells. The conditions noted are these: for cells undergoing apoptosis as compared to control cells: 42 hours. The assay is classed as cell-based, human. Here is the method: Similar experiments were performed using the breast cancer cell line MDA-231. MDA-231 cells in 6-well plates were treated with SH-102 and CDDP, alone or in combination, for 42 hours. Cells were collected and stained with Annexin V-FITC and propidium iodide. The fluorescence of Annexin V-FITC and propidium iodide of individual cells was analyzed by flow cytometry. 25 μM and 50 μM CDDP induced about 25% and 42% of MDA-231 cells to undergo apoptosis as compared to control cells, respectively (FIG. 22). […] Combination of 25 and 50 μM CDDP and 10 μM SH-102 induced about 35% and 75% apoptosis over control cells, respectively (FIG. 22).

For assay [1], the system named is BT-549, MDA-MB-231 (subclone 2LMP), MDA-MB-231 (ATCC) and PC-3 cells. As to the kind of experiment: Cell growth inhibition, WST-8, cancer cell lines. In kind it is cell-based, human. The conditions noted are these: 5 days, WST-8; each of the cancer cell lines. Here is the method:
To test the effect of [6.3.0] Smac mimetics in inhibition of cell growth in human cancer cells, compounds were administered to several different cancer cell lines. BT-549, MDA-MB-231 (subclone 2LMP), and MDA-MB-231 (ATCC) human breast cancer cells and PC-3 human prostate cancer cells were seeded in 96-well plates with increasing concentrations of the compounds. To assay for the selectivity of the compounds for cancer cells, normal prostate epithelial cells were also tested. The cells were then incubated at 37° C. with 5% CO2 for 5 days, followed by detection of cell viability with WST-8. Untreated cells were used as 100% growth. The compounds tested were SH-109, SH-122 and SH-123 (Table 6).

The target in assay [2] is T1, human XIAP-BIR3 protein (residues 241-356) (Homo sapiens, UniProt P98170).
T1 construct: The human XIAP-BIR3 protein (residues 241-356) with a His tag
As to the kind of experiment: Fluorescence polarization saturation binding of labeled Smac peptides.
From the text: A quantitative in vitro binding assay using fluorescence polarization was developed.

Assay [3] relates to MDA-435, MDA-468, and T47D cells. As to the kind of experiment: Cell growth inhibition, WST-8, breast cancer cell lines. The conditions noted are these: 5 days, all three cell lines. In kind it is cell-based, human. Here is the method:
To test the effect of Smac mimetics by themselves in inhibition of cell growth in human cancer cells, SH-102 was administered to three different breast cancer cell lines. MDA-435, MDA-468, and T47D cells were seeded in 96-well plates with increasing concentrations of SH-102, Smac8, or Smac8-C. The cells were then incubated at 37° C. with 5% CO2 for 5 days, followed by detection of cell viability with WST-8 (10% Dojindo solution in IMEM with 10% FCS). OD values at 450 nm with reference at 650 nm were read approximately 3 hours later. Untreated cells were used as 100% growth. […]. […] (FIGS. 26A-26C).

Sequence of XIAP BIR3 (P98170 241-356): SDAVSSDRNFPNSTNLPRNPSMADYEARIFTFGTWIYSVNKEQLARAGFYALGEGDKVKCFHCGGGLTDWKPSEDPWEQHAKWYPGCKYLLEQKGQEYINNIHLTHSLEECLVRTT
T1 sequence (P98170 241-356): as above

Regarding `CC[C@H](N)C(=O)N[C@H]1CCCC[C@H]2CC[C@@H](C(=O)N[C@@H](c3ccccc3)c3cccc(C)c3)N2C1=O` [SH-117], the Ki on XIAP BIR3 came out at 0.012 µM.
`[NH2][Pt]([NH2])([Cl])[Cl]` [CDDP, cisplatin, reference compound]: the “cells undergoing apoptosis as compared to control cells” value is reported as ~25% in the assay on PC-3 cells (50 μM CDDP alone), “about 25%” in the assay on MDA-231 cells (25 μM CDDP alone) and ~42% with MDA-231 cells (50 μM CDDP alone).
Consider `C[C@H](N)C(=O)N[C@H]1CC[C@H]2CC[C@@H](C(=O)N[C@@H](C)c3ccccc3)N2C1=O` [SH-71], for which, on XIAP BIR3, the Ki is > 200 µM.
With `CCC[C@H](N)C(=O)N[C@H]1CC[C@H]2CC[C@@H](C(=O)NCc3ccccc3)N2C1=O` [SH-93], the “potentiation of CDDP activity in inducing apoptosis” value in the assay on PC-3 cells is on record as “unable to potentiate the activity of CDDP”. The “effect of combination with CDDP on apoptosis” value in the assay with MDA-231 cells (25 and 50 μM CDDP + 25 μM SH-93, 42 hours) is on record as “no significant effect”. Also, the Ki on XIAP BIR3 (Ki (μM), Table 5) is > 100 µM.
For `CC[C@H](N)C(=O)N[C@H]1CCCC[C@H]2CC[C@@H](C(=O)N[C@@H](c3ccccc3)c3ccccc3C)N2C1=O` [SH-116], the Ki on XIAP BIR3 worked out at 0.019 µM.
Same read-out and setting: for `C[C@H](N)C(=O)N[C@H]1CC[C@H]2CC[C@@H](C(=O)NCc3cccc(Cl)c3)N2C1=O` [SH-78] the value was 12.2 µM.
Still for that read-out and setting: the same measure for `C[C@H](N)C(=O)N[C@H]1CC[C@H]2CC[C@@H](C(=O)NCc3ccoc3)N2C1=O` [SH-84]: 9.98 µM.
As to `C[C@H](N)C(=O)N[C@H]1CC[C@H]2CC[C@@H](C(=O)Nc3ccccc3)N2C1=O` [SH-69], the Ki at XIAP BIR3 is > 200 µM.
The same measure, in the same setting: the same measure for `CC[C@H](N)C(=O)N[C@H]1CCCC[C@H]2CC[C@@H](C(=O)N[C@H](c3ccccc3)c3ccc(C)cc3)N2C1=O` [SH-115]: 0.092 µM.
Take `CC[C@H](N)C(=O)N[C@H]1CCC[C@H]2CC[C@@H](C(=O)NCc3ccccc3)N2C1=O` [Compound 33]: the Ki on XIAP BIR3 was 0.06 µM; at XIAP BIR3 (Ki) it was 0.06 µM; at XIAP BIR3 (Ki (μM), Table 4, [5.3.0] bicyclic lactam system), 0.06 ± 0.015 µM.
At XIAP BIR3, `CC[C@H](N)C(=O)N[C@H]1CCCC[C@H]2CC[C@@H](C(=O)N[C@@H](c3ccccc3)c3ccc(C)cc3)N2C1=O` [SH-118] registered an inhibition constant (Ki) of 0.016 µM.
`CC[C@H](N)C(=O)N[C@H]1CCCC[C@H]2CC[C@@H](C(=O)NC(c3ccccc3)c3ccccc3)N2C1=O` [SH-109]: in assay [1], the “cell growth inhibition (in words)” value is given as “inhibited the cell growth”. For the same molecule, affinity at XIAP BIR3 was put at a Ki of 0.028 µM.
In the case of `C[C@H](N)C(=O)N[C@H]1CC[C@H]2CC[C@@H](C(=O)NCc3ccsc3)N2C1=O` [SH-85], the affinity at XIAP BIR3, expressed as Ki, was 6.28 µM.
Consider `CC[C@H](N)C(=O)N[C@@H](CCCNC(=N)N)C(=O)N1CCC[C@H]1C(=O)N[C@@H](Cc1ccccc1)C(=O)N[C@@H](CCCCNC(=O)c1ccc2c(c1)C1(OC2=O)c2ccc(O)cc2Oc2cc(O)ccc21)C(=O)O` [SM5F, AbuRPFK-FAM] (H-[Abu]RPFK(6FAM)-OH; N-terminus and C-terminus assumed), for which, in assay [2] (SM5F versus S9F), the “ratio of the Kd values between labeled SM5F and S9F” value worked out at 7.2 fold. Further, the “binding affinity higher than natural Smac peptide S9F” value in assay [2] (relative to S9F) was “about 10 times”.
On to `C[C@H](N)C(=O)N[C@H]1CC[C@H]2CC[C@@H](C(=O)NCCc3c[nH]c4ccccc34)N2C1=O` [SH-79], for which the Ki at XIAP BIR3 is > 200 µM.
With `CC[C@H](N)CC[C@H]1CCC[C@H]2CC[C@@H](C(=O)NC(c3ccccc3)c3ccccc3)N2C1=O` [SH-107], the Ki on XIAP BIR3 was > 40 µM.
For “AVPIAQKS [Smac-8, Smac peptide without a carrier peptide, negative control, reference compound]”, the “potentiation of CDDP activity in inducing apoptosis” value in the assay on PC-3 cells was “unable to potentiate the activity of CDDP”. Besides, the “cell growth inhibition (in words)” value in assay [3] is reported as “essentially ineffective”.
On to `CC[C@@H](C(=O)N[C@H]1CCCC[C@H]2CC[C@@H](C(=O)NC(c3ccccc3)c3ccccc3)N2C1=O)N(C)C` [SH-125], for which the affinity at XIAP BIR3, expressed as Ki, was 0.03 µM.
In the case of `CC(=O)O[C@@]12CO[C@@H]1C[C@H](O)[C@@]1(C)C(=O)[C@H](O)C3=C(C)[C@@H](OC(=O)[C@H](O)[C@@H](NC(=O)OC(C)(C)C)c4ccccc4)C[C@@](O)([C@@H](OC(=O)c4ccccc4)[C@H]21)C3(C)C` [TAXOTERE, docetaxel, reference compound], the figures for the “cells undergoing apoptosis as compared to control cells” value in the assay on PC-3 cells (10 μM TAXOTERE alone) and with PC-3 cells (20 μM TAXOTERE alone) were “about 5%” and ~8%, respectively.
With `CC[C@H](N)C(=O)N[C@H]1CCCC[C@H]2CC[C@@H](C(=O)N[C@@H](c3ccccc3)c3ccc4ccccc4c3)N2C1=O` [SH-120], the affinity at XIAP BIR3 corresponds to a Ki of 0.023 µM.
On the same count and under the same terms, for `C[C@H](N)C(=O)N[C@H]1CCC[C@H]2CC[C@@H](COC(c3ccccc3)c3ccccc3)N2C1=O` [SH-106] the value was 2.01 µM; for `CC[C@H](N)C(=O)N[C@H]1CCCC[C@H]2CC[C@@H](C(=O)N[C@H](c3ccccc3)c3ccc4ccccc4c3)N2C1=O` [SH-119], 0.12 µM.
For the molecule `C[C@H](O)C(=O)N[C@H]1CCCC[C@H]2CC[C@@H](C(=O)NC(c3ccccc3)c3ccccc3)N2C1=O` [SH-123], in assay [1], the “cell growth inhibition (in words)” value was “inhibited the cell growth”. Besides, the Ki at XIAP BIR3 was > 10 µM.
For `C[C@H](N)C(=O)N[C@H]1CC[C@H]2CC[C@@H](C(=O)N[C@H](C)c3ccccc3)N2C1=O` [SH-72], the affinity at XIAP BIR3, expressed as Ki, was 8.88 µM.
`C[C@H](N)C(=O)N[C@H]1CC[C@H]2CC[C@@H](C(=O)N[C@H](Cc3ccccc3)C(N)=O)N2C1=O` [SH-92] showed a Ki at XIAP BIR3 of 9.98 µM.
On the same count and under the same terms, for `Cc1cccc(CNC(=O)[C@@H]2CC[C@@H]3CC[C@H](NC(=O)[C@H](C)N)C(=O)N32)c1` [SH-77] the value was 44.4 µM; for `C[C@H](N)C(=O)N[C@H]1CCC[C@H]2CC[C@@H](C(=O)NC(c3ccccc3)c3ccccc3)N2C1=O` [SH-104], 0.059 µM; for `C[C@H](N)C(=O)N[C@H]1CC[C@H]2CC[C@@H](C(=O)NCc3ccc(Br)cc3)N2C1=O` [SH-75], 19.6 µM.
Same read-out and setting: for `C[C@H](N)C(=O)N[C@H]1CC[C@H]2CC[C@@H](C(=O)NCc3ccccc3Br)N2C1=O` [SH-73] the value was 26.3 µM; for `CC[C@H](N)C(=O)N[C@H]1CCCC[C@H]2CC[C@@H](C(=O)N[C@H](c3ccccc3)c3ccccc3C)N2C1=O` [SH-113], 0.14 µM; for `C[C@H](N)C(=O)N[C@H]1CC[C@H]2CC[C@@H](C(=O)NCc3cccc(Br)c3)N2C1=O` [SH-74], 9.62 µM.
Same read-out and setting: for `CC(C)C(NC(=O)[C@H](C)N)C(=O)C1CCC[C@H]1C(=O)NCc1ccccc1` (stereo partly drawn) [Compound 1] the value was 0.29 ± 0.06 µM; for `CC[C@H](N)C(=O)N[C@H]1CC[C@H]2CC[C@@H](C(=O)N[C@@H](Cc3ccccc3)c3ccccc3)N2C1=O` [SH-100], 8.51 µM; for `CC[C@H](N)C(=O)N[C@H]1CCCC[C@H]2CC[C@@H](C(=O)N[C@H](c3ccccc3)c3cccc(C)c3)N2C1=O` [SH-114], 0.027 µM.
